Experimental data from patent US11642316B2, “Water-soluble curcumin mixture with high bioavailability and preparation method and application thereof” (HENAN ZHONGDA HENGYUAN BIOTECHNOLOGY STOCK CO., LTD., priority 2021, dated 2023).

Assay: Bioavailability test of water-soluble curcumin mixture in rats (plasma, HPLC-MS/MS)
Assay type: in vivo
Details: intragastric administration, 200 mg·kg^−1 calculated as curcumin, plasma 0.167-12 h
Description: After experimental testing in rats, the bioavailability test method of water-soluble curcumin mixture was verified according to the “Guidelines for Validation of 9012 Biological Sample Quantitative Analysis Method” in the fourth appendix of the Pharmacopoeia of the People's Republic of China (2015 Edition). Specific steps are as follows:
24 Healthy SD (spontaneous mutant Danforth's short tail) rats were randomly divided into 4 groups (6 in each group) after being adaptively reared for one week;
In each group, about 0.3 mL of blood was collected from the orbit at 0.167, 0.5, 1, 1.5, 2, 3, 5, 8 and 12 hours after administration, and centrifuged at 4000 rpm for 10 minutes. The plasma was stored at −20° C. for later use.
Separating 100 μL of plasma, adding 0.3 mL of ethyl acetate, mixing for 2 min, centrifuging at 4000 rpm for 10 min, and separating the supernatant; adding 0.3 mL of ethyl acetate to the precipitate, mixing for 2 min, and centrifuging at 4000 rpm for 10 min, vacuum drying at 40° C. Adding 100 μL of methanol to the residue, wetting the centrifuge tube, mixing for 2 min, filtering with 0.22 μm microporous membrane, analyzing and testing.
HPLC-MS/MS with emodin as the internal standard was used for detection, and DAS2.0 software was used to calculate the pharmacokinetic parameters and compare the relative bioavailability.

- AUC (012 h) (SD rats): 140.36 ng·h/mL
- AUC(0-t) (SD, rat, plasma, po, 200 mg/kg, read-out: AUC (012 h)): 108 ng·h/mL
SMILES: COc1cc(/C=C/C(=O)CC(=O)/C=C/c2ccc(O)c(OC)c2)ccc1O [curcumin]
